Assay results: patent US20070270455A1, “INHIBITION OF NF-kB” (priority 2005, published 2007)

Legend:
[1] = tested on: p53; test: Western blot of p53 phosphorylation status in RCC45 cells; format: cell-based; conditions: 9AA 5 μM or dox 1 μM, 16 hours
Experimental: (§1) Western blot analysis of total protein lysates was performed using antibodies against p53 (DO1) and against specific sites of phosphorylation in p53. […] HCT116 cells were treated for 30 minutes with 1 μM PS-341. PS-341 was washed off after 30 minutes and cells were re-incubated in drug free medium prior to analysis at 3 hours or 16 hours post-treatment. […] Proteasome activity was determined by measuring the absorbance of free AMC generated by cleavage of an AMC-fluorogenic peptide. The proteasome activity of untreated cells was set at 100%. […] Cell lysates were isolated at the indicated hours after treatment and used for western blotting. […]
(§2) Cells were lysed in RIPA buffer (25 mM Tris HCl, pH7.2, 125 mM NaCl, 1% NP40, 1% sodium deoxycholate, 1 mM EDTA) containing 1 mM PMSF (Sigma), 10 μg/ml of aprotinin (Sigma) and 10 μg/ml of leupeptin (Sigma). Protein concentrations were determined with BioRad Dc protein assay kit. […] The following antibodies were used: anti-p53—monoclonal mouse DO1 (Santa-Cruz), anti-p21—monoclonal mouse F-5 (Santa-Cruz), anti-mdm2—monoclonal mouse SMP14 (Santa-Cruz). p53 phosphorylation status was analyzed using phospho-p53 sampler kit from Cell signaling according to manufacturer's recommendations, anti-p65—(C20, Santa Cruz), anti-phospho-p65—(ser536, Cell Signaling), anti-IκBa—(C21, Santa Cruz), anti-p50—(NLS, Santa Cruz). […]

[2] = tested on: RCC45ConALacZ cells; test: p53-responsive reporter (ConALacZ) β-galactosidase assay in RCC45 cells; format: cell-based; conditions: compared with doxorubicin
Experimental: 2×10^4 of RCC45ConALacZ cells were plated into wells of 96 well plates in 200 μL of phenol-red free RPMI medium with standard additives. After overnight incubation library of chemical compounds in DMSO solution together with controls was added with the help of plastic bacterial replicators (200+/−100 nL). Final concentration of compounds was around 5 μg/ml. Negative control was DMSO, positive control was doxorubicin solution (0.2, 0.6 and 2 μM). After 24 hours lysis buffer with ONPG was added directly to the medium on ice. After 3 hours of incubation at 37° C., β-galactosidase activity was estimated by reading absorbance values Wallack 1420 plate reader (Perkin Elmer) at λ=430 nm.
For cotransfection set-up, 2×10^5 cells were plated into 6 well plates and, after overnight incubation, transfected with Lipofectamin Plus reagent (Gibco BRL) with 0.5 μg of reporter plasmids (p21-ConALuc or pNF-κBLuc) in combination with different concentrations of p53, Arf, Ss-IκB, or siHDM2 expressing plasmids. […] Luciferase activity and β-galactosidase activity was measured in lysates prepared 48 hours after transfection with Cell Lysis Buffer (Promega) by luciferase assay system (Promega) or β-galactosidase enzyme system (Promega). Luminometric and colorimetric reactions were read on the Wallack 1420 plate reader (Perkin Elmer). […]

[3] = tested on: p53 null H1299 cells; test: p53-responsive reporter assay in p53 null cells; format: cell-based
Source text: (§3) Bars represent folds of p53 responsive reporter induction over untreated controls. Box represents western blot analysis of p53 expression in total protein lysates of both cells variants in basal and doxorubicin treated conditions (to evaluate basal and DNA-damage induced level of p53). […] Fold induction presented as fold of reporter activation over untreated control. […] Fold induction presented as fold of reporter activation over untreated control.
(§4) For cotransfection set-up, 2×10^5 cells were plated into 6 well plates and, after overnight incubation, transfected with Lipofectamin Plus reagent (Gibco BRL) with 0.5 μg of reporter plasmids (p21-ConALuc or pNF-κBLuc) in combination with different concentrations of p53, Arf, Ss-IκB, or siHDM2 expressing plasmids. Corresponding empty vectors were added into all transfections up to 2 μg of total DNA amount. […] Luciferase activity and β-galactosidase activity was measured in lysates prepared 48 hours after transfection with Cell Lysis Buffer (Promega) by luciferase assay system (Promega) or β-galactosidase enzyme system (Promega). Luminometric and colorimetric reactions were read on the Wallack 1420 plate reader (Perkin Elmer). […] Luciferase or β-galactosidase activity and protein concentration were measured in aliquots of cell lysates using standard kits (Promega, Luciferase and β-galactosidase assay systems, Biorad Protein Assay Kit).

[4] = tested on: HT1080ConALuc cells; test: p53-responsive luciferase reporter assay in HT1080 cells; format: cell-based, human
Source text: as §3
For cotransfection set-up, 2×10^5 cells were plated into 6 well plates and, after overnight incubation, transfected with Lipofectamin Plus reagent (Gibco BRL) with 0.5 μg of reporter plasmids (p21-ConALuc or pNF-κBLuc) in combination with different concentrations of p53, Arf, Ss-IκB, or siHDM2 expressing plasmids. Corresponding empty vectors were added into all transfections up to 2 μg of total DNA amount. Normalization of transfection efficiency was done by adding 0.2 μg of pCMV-LacZ plasmid. Luciferase activity and β-galactosidase activity was measured in lysates prepared 48 hours after transfection with Cell Lysis Buffer (Promega) by luciferase assay system (Promega) or β-galactosidase enzyme system (Promega). Luminometric and colorimetric reactions were read on the Wallack 1420 plate reader (Perkin Elmer). Integrated reporter set-up. 2×10^4 of cells with integrated reporter were plated in 96 well plates. After overnights incubation chemical compounds or media from lentivirus producing cells were added. At different time points cell lysates were prepared using Reporter Lysis Buffer (Promega). Luciferase or β-galactosidase activity and protein concentration were measured in aliquots of cell lysates using standard kits (Promega, Luciferase and β-galactosidase assay systems, Biorad Protein Assay Kit).

[5] = tested on: MCF7ConALacZ cells; test: p53-responsive reporter assay in MCF7 cells; format: cell-based; conditions: compared with doxorubicin
Source text: as §3, §4

[6] = tested on: H1299-NF-kBLuc cells; test: NF-κB-responsive luciferase reporter assay; format: cell-based
[7] = tested on: IκB; test: Western blot of IκB level and phosphorylation; format: cell-based; conditions: PC-3 cells, 10 μM; MCF7 cells
Experimental: as §1, §2

[8] = tested on: topoisomerase II; test: DNA—Topoisomerase II activity assay; format: cell-based; conditions: in vitro; HT1080 cells, 1 h
Experimental: Western blot analysis of total protein lysates was performed using antibodies against p53 (DO1) and against specific sites of phosphorylation in p53. […] HCT116 cells were treated for 30 minutes with 1 μM PS-341. PS-341 was washed off after 30 minutes and cells were re-incubated in drug free medium prior to analysis at 3 hours or 16 hours post-treatment. […] Proteasome activity was determined by measuring the absorbance of free AMC generated by cleavage of an AMC-fluorogenic peptide. The proteasome activity of untreated cells was set at 100%. […] Cell lysates were isolated at the indicated hours after treatment and used for western blotting. Blots were probed with antibodies specific for both phosphorylated and unphosphorylated forms of IκB-α. β-actin specific antibodies were used as a loading control.
HT1080 cells were labeled for 24 hours with 0.02 to 0.04 mCi/mL of [^14C] thymidine, specific activity 53 mCi/mmol (Amersham). […] The induction of topo II-mediated DNA scission was determined by measuring precipitation of the protein DNA complex using a modification of the SDS-KCl technique.

[9] = tested on: HT1080-sip53 and HT1080-siGFP cells; test: Cell survival assay in isogenic cell pairs with anti-p53 or control siRNA; format: cell-based, human; conditions: anti-p53 vs control siRNA; maximum difference in HT1080 cells
[10] = after treatment with the drug, FIG. 3f

Question: How did the p53 phosphorylation status [1] turn out when Nc1c2ccccc2nc2ccccc12 [9AA, 9-aminoacridine] was run?
Answer: did not affect

Question: And the “p53 reactivation / reporter induction (in words)” value [2]?
Answer: much stronger than doxorubicin

Question: What about the “stimulation of p53 reporter activity” value [3] of the same compound?
Answer: no stimulation of reporter activity

Question: And the “concentration at which p53 was activated” value ([4]; HT1080ConALuc cells, 24 hours)?
Answer: ≥ 1 µM

Question: What about the “time at which p53-dependent transactivation becomes detectable” value [4, 10] of the same compound?
Answer: 12 h

Question: What about the “time at which p53-dependent transactivation reaches maximum” value [4, 10] of the same compound?
Answer: around 36 hours

Question: What about the “induction of p53 reporter and p53-responsive genes (in words)” value [5] of the same compound?
Answer: weaker than that of doxorubicin

Question: What about the “TSA-stimulated NF-κB-dependent transcription” value ([6]; 100 nM TSA) of the same compound?
Answer: could not be blocked

Question: And the NF-κB-responsive reporter activity ([6]; basal and TNF-induced (10 ng/ml))?
Answer: inhibited basal and TNF-induced activity of the reporter

Question: And the “level of IκB” value [7]?
Answer: gradual decrease followed by complete disappearance of IκB

Question: What about the “effect on topoisomerase II activity” value [8] of the same compound?
Answer: no effect

Question: And the “toxicity in cells differing in p53 status” value [9]?
Answer: less toxic to the cells with reduced p53 expression
